Several values for one entry are separate records, joined by “and”; a condition that tells them apart may be missing. Equal values may be shown once.
Key:
[1] = MTT cytotoxicity assay, BHK-21; assay type: cell-based, Syrian hamster; settings: Syrian hamster
Excerpt: (§1) For selected compounds, 6a–6f, we performed a determination of the cytotoxicity in a wider variety of cancer and non-cancerous cell lines (see Table S2, Supplementary Materials) in order to learn the characteristic features of selectivity or the similarity of biological properties.
(§2) The HT-1080 (human connective tissue fibrosarcoma, ATCC® CCL-121™), MH-22A (mouse hepatocarcinoma, ECACC Cat. No. 96121721), A-549 (human lung carcinoma, ATCC® CCL-185™), NIH3T3 (Swiss Albino mouse embryo fibroblast, ECACC Cat. No. 93061524), Hek293 (human embryonic kidney, ATCC® CRL-1573™), BHK-21 (Syrian hamster kidney, ATCC® CCL-10™), A-431 (human epidermoid carcinoma, ATCC® CRL-1555™), Saos-2 (human osteosarcoma, ATCC® HTB-85™), HeLa (human epitheloid cervix carcinoma, ATCC® CCL-2™), U937 (human myeloid leukaemia, ATCC® CRL-1593.2™), C6 (rat glioma, ATCC® CCL-107™), and B16-F10 (murine melanoma, ATCC® CRL-6475™) cell lines were obtained from the American Type Culture Collection (ATCC) and European Collection of Authenticated Cell Cultures (ECACC).
(§3) HT-1080, MH-22A, A-549, NIH3T3, BHK-21, A-431, HeLa, and B16-F10 cells were cultured in Dulbecco’s Modified Eagle’s Medium (DMEM) with 2 mM glutamine and 10% foetal bovine serum (FBS). Hek293 cells were cultured in Eagle’s Minimum Essential Medium with 10% foetal bovine serum. U937 cells were cultured in RPMI-1640 Medium with 2 mM glutamine and 10% foetal bovine serum. C6 cells were cultured in Ham’s F12 Medium with 2 mM glutamine and 10% foetal bovine serum. Saos-2 cells were cultured in McCoy’s 5a Medium with 2 mM glutamine and 10% foetal bovine serum. The cells were incubated at 37 °C with 5% CO2, 95% air, and complete humidity. Once ~90% confluence was reached, they were detached using 0.05% trypsin/EDTA and counted. The cells were plated at optimally determined densities for the logarithmic phase of growth. These cells were then suspended at a concentration of 4000 cells/well for HT-1080, MH-22A, A-549, NIH3T3, BHK-21, A-431, HeLa, B16-F10, Hek293, and Saos-2 cells and a concentration of 9000 cells/well for U937, C6, Hek293, and GM08402 cells and added onto a 96-well plate. For background absorption, some wells remained cell free, i.e., as a blank control. Cells were incubated for 72 h at 37 °C and 5% CO2 where they were exposed to a media containing serial dilutions of the investigated compounds (n = 3). Cell viability was measured using the 3-(4,5-dimethylthiazol-2-yl)-2,5-diphenyl-tetrazolium bromide (MTT) assay. In brief, after incubating with compounds, the culture medium was removed and fresh medium with 0.2 mg/mL MTT was added to each well of the plate. After incubation (3 h, 37 °C, 5% CO2), the medium with MTT solution was removed and replaced with 200 µL DMSO and 25 µL Sorenson’s glycine buffer (glycine 0.1 M, NaCl 0.1 M, pH: 10.5 with 0.1 M NaOH). The plate was shaken for 15 min at room temperature and the optical density (OD) of the wells was determined using a multichannel spectrophotometer (Thermo Scientific Multiskan EX) at 540 nm. The quantity of the control cells was taken in calculations as 100%. The IC50 value was calculated using the program Graph Pad Prism® 3.0.
The HT-1080 (human connective tissue fibrosarcoma, ATCC® CCL-121™), MH-22A (mouse hepatocarcinoma, ECACC Cat.No. 96121721), A-549 (human lung carcinoma, ATCC® CCL-185™), NIH 3T3 (mouse Swiss Albino embryo fibroblast, ECACC Cat.No. 93061524), Hek293 (human embryonic kidney, ATCC® CRL-1573™), BHK-21 (hamster Syrian kidney, ATCC® CCL-10™), A-431 (human epidermoid carcinoma, ATCC® CRL-1555™), Saos-2 (human oste osarcoma, ATCC® HTB-85™) HeLa (human epitheloid cervix carcinoma, ATCC® CCL-2™), U937 (human myeloid leukaemia, ATCC® CRL-1593.2™), C6 (rat glioma, ATCC® CCL-107™), B16-F10 (murine melanoma, ATCC® CRL-6475™) cell lines were obtained from American Type Culture Collection (ATCC) and European Collection of Authenticated Cell Cultures […]
Table S2. […]

in vitro = assay type: cell-based, murine; settings: mouse
Excerpt: as §1, §2
as §3, with “3.0. […]” for “3.0.”

[2] = Photoluminescence quantum yield (PLQY); assay type: physicochemical; settings: DMSO solution
Protocol: Photoluminescence quantum yield (PLQY) values for the DMSO solution of compounds 6a–g were measured (Table 3, entry 4). […] The PLQY values for the SP derivatives 6f,g (each with an N-dimethylaminophenyl moiety) were 1.6% and 1.4%, respectively. The PLQY value for the SP derivative 6c (with a 4-dimethylaminophenyl moiety) was only 0.1%. The PLQY values for the SP derivatives 6d,e (each with a julolidinyl moiety) were 0.5% and 0.7%, respectively. Previously, we designed naphthalene-2-yl)vinyl)pyridinium groups containing 1,4-dihydropyridine amphiphile, for which the PLQY value for the EtOH solution was 1% [20].

[3] = Self-assembling properties by dynamic light scattering (DLS); assay type: physicochemical; settings: 0.1 mM in aqueous medium, ethanol injection, freshly prepared
Protocol: The estimation of self-assembling properties for the selected compounds was performed using dynamic light scattering (DLS) measurements. The values for the polydispersity index (PDI) and the hydrodynamic average diameter (Dav) of nanoparticles formed by compounds 6a,c–e,g were determined (with a final compound concentration of 0.1 mM in the aqueous medium). The nanoparticles were prepared by the ethanol injection method via the dissolution of the compound in ethanol and after that by the dispersion of the solution into water. The approach is rapid, simple, and can be easily scaled up. This method was previously used successfully for the preparation and characterisation of lipid-like pyridinium amphiphiles. The DLS measurements were performed for freshly prepared samples at room temperature.
The self-assembling properties of the tested compounds were estimated according to a published procedure with minor modifications. Stock solutions of the compounds were prepared in EtOH at a concentration of 1 mM. Stock solutions of the compounds (0.3 mL) were injected into 2.7 mL of deionised water with maximum stirring (IKA Vortex 2 (IKA, Staufen, Germany)) to obtain a final concentration of 0.1 mM. The DLS measurements of the nanoparticles in the aqueous solution were conducted using a Zetasizer Nano ZSP (Malvern Panalytical Ltd., Malvern, UK) instrument with Malvern Instruments Ltd. Software 8.01.4906. The measurements were performed with the following settings—medium: water; refractive index: 1.33; viscosity: 0.8872 cP; temperature: 25 °C; dielectric constant: 78.5; nanoparticles: liposomes; refractive index of materials: 1.60; detection angle: 173° wavelength: 633 nm. The obtained data were analysed using the multimodal number distribution software provided with the instrument. To ensure reproducibility, the measurements were performed in triplicate.

[4] = cancer cell line, MTT, 72 h, read-out: Cytotoxicity IC50 B16-F10

| Compound | IC50 at 72 h ([1]; non-cancerous cell line, MTT, 72 h, read-out: Cytotoxicity IC50 BHK-21) | IC50 at 72 h (in vitro; [4]) | PLQY, % [2] | PDI (polydispersity index) [3] | IC50 at 72 h [1] | IC50 at 72 h (in vitro) | Dav, nm (average diameter of formed nanoparticles) [3] |
| --- | --- | --- | --- | --- | --- | --- | --- |
| CCCCCCCCCCCC[n+]1ccc(C=Cc2cc(OC)c(OC)c(OC)c2)cc1.[Br-] [Compound 6a, 4-(3,4,5-trimethoxystyryl)-N-dodecylpyridinium bromide] | 1.01 µg/mL | 0.8 µg/mL | 15.1% | 0.331 ± 0.261 | – | – | – |
| CCCCCCCCCCCCCCCC[n+]1ccc(C=Cc2cc(OC)c(OC)c(OC)c2)cc1.[Br-] [Compound 6b] | – | – | 12.2% | – | – | – | – |
| CCCCCCCCCCCCCCCC[n+]1ccc(C=CC=Cc2ccc(OC)cc2)cc1.[Br-] [Compound 6c, 1-hexadecyl-4-(4-(4-methoxyphenyl)buta-1,3-dien-1-yl)pyridin-1-ium bromide] | – | – | 0.1% | 0.218 ± 0.026 | 0.35 µg/mL | 0.49 µg/mL | 212 nm and 212 ± 4 nm |
| CCCCCCCCCCCC[n+]1ccc(C=Cc2cc3c4c(c2)CCCN4CCC3)cc1.[Br-] [Compound 6d, 1-dodecyl-4-(2-(2,3,6,7-tetrahydro-1H,5H-pyrido[3,2,1-ij]quinolin-9-yl)vinyl)pyridin-1-ium bromide] | – | 0.113 µg/mL | 0.5% | 0.286 ± 0.030 | 0.082 µg/mL | – | – |
| CCCCCCCCCCCCCCCC[n+]1ccc(C=CC=Cc2cc3c4c(c2)CCCN4CCC3)cc1.[Br-] [Compound 6e, 1-hexadecyl-4-(4-(2,3,6,7-tetrahydro-1H,5H-pyrido[3,2,1-ij]quinolin-9-yl)buta-1,3-dien-1-yl)pyridin-1-ium bromide] | – | 2.9 µg/mL | 0.7% | 0.260 ± 0.011 | 2.7 µg/mL | – | 118 nm and 118 ± 4 nm |
